Results taken from PMC11480411, “Mucosal sugars delineate pyrazine vs pyrazinone autoinducer signaling in Klebsiella oxytoca” (Nature Communications, 2024).

How the values were obtained:
Assay in all cases: PRESTO-Tango GPCR screen
Assay type in all cases: cell-based
Conditions in all cases: 100 µM
[1] = biological target: T1, MRGPRE (Homo sapiens, UniProt Q86SM8)
T1 construct: purchased PRESTO-Tango GPCR kit (Roth lab / Addgene)
Summary of the method: (§1)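 Receptor activation is detected through β-arrestin-TEV cleavage releasing tTA, which drives luciferase in HTLA cells. Transfected cells receive compound (100 μM final) in DMEM with 10 mM HEPES for 20 h; Bright-Glo luminescence is divided by the PBS-control signal.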

[2] = biological target: T2, GPR87 (Homo sapiens, UniProt Q9BY21)
T2 construct: purchased PRESTO-Tango GPCR kit (Roth lab / Addgene)
Summary of the method: as §1

[3] = biological target: T3, CHRM2 (Homo sapiens, UniProt P08172)
T3 construct: purchased PRESTO-Tango GPCR kit (Roth lab / Addgene)
Summary of the method: as §1

[4] = biological target: T4, BDKBR1 (Homo sapiens, UniProt P46663)
T4 construct: purchased PRESTO-Tango GPCR kit (Roth lab / Addgene)
Summary of the method: as §1

[5] = biological target: T5, OXTR (Homo sapiens, UniProt P30559)
T5 construct: purchased PRESTO-Tango GPCR kit (Roth lab / Addgene)
Summary of the method: as §1

[6] = biological target: T6, ADRB1 (Homo sapiens, UniProt P08588)
T6 construct: purchased PRESTO-Tango GPCR kit (Roth lab / Addgene)
Summary of the method: as §1

[7] = biological target: T7, GPR44 (Homo sapiens, UniProt Q9Y5Y4)
T7 construct: purchased PRESTO-Tango GPCR kit (Roth lab / Addgene)
Summary of the method: as §1

[8] = biological target: T8, C5A (Homo sapiens, UniProt P21730)
T8 construct: purchased PRESTO-Tango GPCR kit (Roth lab / Addgene)
Summary of the method: as §1

[9] = biological target: T9, GPRC5A (Homo sapiens, UniProt Q8NFJ5)
T9 construct: purchased PRESTO-Tango GPCR kit (Roth lab / Addgene)
T9 sequence (Q8NFJ5 whole entry): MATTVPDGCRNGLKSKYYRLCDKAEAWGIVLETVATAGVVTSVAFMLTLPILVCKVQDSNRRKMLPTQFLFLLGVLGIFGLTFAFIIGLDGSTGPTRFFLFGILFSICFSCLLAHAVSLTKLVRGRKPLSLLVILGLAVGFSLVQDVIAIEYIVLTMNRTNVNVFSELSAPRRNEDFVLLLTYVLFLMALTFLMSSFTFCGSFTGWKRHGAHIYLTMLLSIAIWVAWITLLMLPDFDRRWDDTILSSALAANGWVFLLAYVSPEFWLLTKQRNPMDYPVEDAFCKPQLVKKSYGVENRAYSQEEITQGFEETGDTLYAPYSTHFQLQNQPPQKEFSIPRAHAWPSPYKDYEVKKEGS
Summary of the method: as §1

[10] = biological target: T10, GRM1 (Homo sapiens, UniProt Q13255)
T10 construct: purchased PRESTO-Tango GPCR kit (Roth lab / Addgene)
T10 sequence (Q13255 19-1194): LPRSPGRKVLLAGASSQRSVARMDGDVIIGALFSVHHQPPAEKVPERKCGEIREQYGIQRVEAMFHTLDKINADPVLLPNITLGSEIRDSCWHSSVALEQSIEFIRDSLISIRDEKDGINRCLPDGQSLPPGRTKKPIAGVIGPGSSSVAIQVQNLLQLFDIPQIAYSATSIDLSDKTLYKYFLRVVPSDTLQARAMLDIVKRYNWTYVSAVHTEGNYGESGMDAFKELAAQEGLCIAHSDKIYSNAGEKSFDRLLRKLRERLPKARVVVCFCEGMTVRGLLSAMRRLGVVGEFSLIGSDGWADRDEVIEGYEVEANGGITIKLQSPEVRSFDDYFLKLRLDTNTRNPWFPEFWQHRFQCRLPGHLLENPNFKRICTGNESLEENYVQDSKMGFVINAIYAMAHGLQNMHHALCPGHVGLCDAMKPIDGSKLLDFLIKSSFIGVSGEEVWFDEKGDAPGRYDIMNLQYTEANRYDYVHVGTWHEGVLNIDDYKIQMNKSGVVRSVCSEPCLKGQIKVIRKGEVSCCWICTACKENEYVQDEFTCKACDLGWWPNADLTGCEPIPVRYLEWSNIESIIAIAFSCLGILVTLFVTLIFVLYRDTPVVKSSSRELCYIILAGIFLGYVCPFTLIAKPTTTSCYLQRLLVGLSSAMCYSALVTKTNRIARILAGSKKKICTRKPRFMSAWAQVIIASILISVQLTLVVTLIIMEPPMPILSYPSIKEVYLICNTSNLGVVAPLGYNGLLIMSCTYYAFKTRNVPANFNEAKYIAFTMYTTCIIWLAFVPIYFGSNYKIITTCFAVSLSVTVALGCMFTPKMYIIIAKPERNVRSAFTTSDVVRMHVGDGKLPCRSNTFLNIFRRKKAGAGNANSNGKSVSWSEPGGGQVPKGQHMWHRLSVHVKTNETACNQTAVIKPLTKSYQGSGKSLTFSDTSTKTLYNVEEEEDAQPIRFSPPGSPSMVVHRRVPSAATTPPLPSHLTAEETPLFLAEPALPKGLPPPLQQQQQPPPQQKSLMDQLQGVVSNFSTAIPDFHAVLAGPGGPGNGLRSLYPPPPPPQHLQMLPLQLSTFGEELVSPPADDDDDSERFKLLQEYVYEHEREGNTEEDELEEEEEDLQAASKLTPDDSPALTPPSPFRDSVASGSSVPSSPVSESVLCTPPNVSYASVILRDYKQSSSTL
Summary of the method: as §1

[11] = biological target: T11, MAS1 (Homo sapiens, UniProt P04201)
T11 construct: purchased PRESTO-Tango GPCR kit (Roth lab / Addgene)
Summary of the method: as §1

[12] = biological target: T12, GPR88 (Homo sapiens, UniProt Q9GZN0)
T12 construct: purchased PRESTO-Tango GPCR kit (Roth lab / Addgene)
Summary of the method: as §1

[13] = biological target: T13, CRHR1 (Homo sapiens, UniProt P34998)
T13 construct: purchased PRESTO-Tango GPCR kit (Roth lab / Addgene)
Summary of the method: as §1

[14] = biological target: T14, GPR162 (Homo sapiens, UniProt Q16538)
T14 construct: purchased PRESTO-Tango GPCR kit (Roth lab / Addgene)
Summary of the method: as §1

[15] = biological target: T15, GPR17 (Homo sapiens, UniProt Q13304)
T15 construct: purchased PRESTO-Tango GPCR kit (Roth lab / Addgene)
T15 sequence (Q13304 whole entry): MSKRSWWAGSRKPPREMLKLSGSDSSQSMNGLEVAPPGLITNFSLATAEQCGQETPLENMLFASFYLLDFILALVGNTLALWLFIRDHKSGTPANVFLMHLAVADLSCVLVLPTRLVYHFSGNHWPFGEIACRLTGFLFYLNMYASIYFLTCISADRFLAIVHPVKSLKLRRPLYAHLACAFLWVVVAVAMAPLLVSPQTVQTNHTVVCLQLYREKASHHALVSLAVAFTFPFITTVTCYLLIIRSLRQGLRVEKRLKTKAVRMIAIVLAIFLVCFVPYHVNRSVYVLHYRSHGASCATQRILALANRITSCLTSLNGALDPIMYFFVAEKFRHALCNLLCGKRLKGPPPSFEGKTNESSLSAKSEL
Summary of the method: as §1

[16] = biological target: T16, GIPR (Homo sapiens, UniProt P48546)
T16 construct: purchased PRESTO-Tango GPCR kit (Roth lab / Addgene)
Summary of the method: as §1

[17] = biological target: T17, CHRM1 (Homo sapiens, UniProt P11229)
T17 construct: purchased PRESTO-Tango GPCR kit (Roth lab / Addgene)
Summary of the method: as §1

[18] = biological target: T18, PTGER4 (Homo sapiens, UniProt P35408)
T18 construct: purchased PRESTO-Tango GPCR kit (Roth lab / Addgene)
Summary of the method: as §1

[19] = biological target: T19, MCHR1 (Homo sapiens, UniProt Q99705)
T19 construct: purchased PRESTO-Tango GPCR kit (Roth lab / Addgene)
Summary of the method: as §1

[20] = biological target: T20, NMUR2 (Homo sapiens, UniProt Q9GZQ4)
T20 construct: purchased PRESTO-Tango GPCR kit (Roth lab / Addgene)
Summary of the method: as §1

[21] = biological target: T21, CNR1 (Homo sapiens, UniProt P21554)
T21 construct: purchased PRESTO-Tango GPCR kit (Roth lab / Addgene)
Summary of the method: as §1

[22] = biological target: T22, ADCYAP1R1 (Homo sapiens, UniProt P41586)
T22 construct: purchased PRESTO-Tango GPCR kit (Roth lab / Addgene)
Summary of the method: as §1

[23] = biological target: T23, GPR63 (Homo sapiens, UniProt Q9BZJ6)
T23 construct: purchased PRESTO-Tango GPCR kit (Roth lab / Addgene)
Summary of the method: as §1

[24] = biological target: T24, MTNR1A (Homo sapiens, UniProt P48039)
T24 construct: purchased PRESTO-Tango GPCR kit (Roth lab / Addgene)
T24 sequence (P48039 whole entry): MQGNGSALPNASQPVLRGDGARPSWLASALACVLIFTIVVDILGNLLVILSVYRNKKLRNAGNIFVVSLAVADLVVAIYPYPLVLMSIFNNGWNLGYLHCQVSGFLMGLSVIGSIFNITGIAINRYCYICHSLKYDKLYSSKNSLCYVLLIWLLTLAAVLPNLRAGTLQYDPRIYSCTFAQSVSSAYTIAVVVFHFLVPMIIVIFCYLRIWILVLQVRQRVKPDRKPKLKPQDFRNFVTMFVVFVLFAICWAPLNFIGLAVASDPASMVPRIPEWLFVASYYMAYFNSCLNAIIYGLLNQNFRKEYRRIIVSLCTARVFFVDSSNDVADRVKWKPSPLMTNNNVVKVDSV
Summary of the method: as §1

[25] = biological target: T25, MCHR2 (Homo sapiens, UniProt Q969V1)
T25 construct: purchased PRESTO-Tango GPCR kit (Roth lab / Addgene)
T25 sequence (Q969V1 whole entry): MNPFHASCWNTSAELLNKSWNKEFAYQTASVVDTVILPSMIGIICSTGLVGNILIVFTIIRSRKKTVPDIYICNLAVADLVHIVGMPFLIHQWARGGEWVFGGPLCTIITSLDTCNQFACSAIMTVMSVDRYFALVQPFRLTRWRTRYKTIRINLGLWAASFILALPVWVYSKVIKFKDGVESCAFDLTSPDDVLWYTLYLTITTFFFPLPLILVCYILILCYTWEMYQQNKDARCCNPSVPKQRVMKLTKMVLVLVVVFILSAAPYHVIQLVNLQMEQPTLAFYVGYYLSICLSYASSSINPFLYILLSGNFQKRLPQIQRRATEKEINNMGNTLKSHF
Summary of the method: as §1

[26] = biological target: T26, GPR157 (Homo sapiens, UniProt Q5UAW9)
T26 construct: purchased PRESTO-Tango GPCR kit (Roth lab / Addgene)
Summary of the method: as §1

[27] = biological target: T27, PTGER1 (Homo sapiens, UniProt P34995)
T27 construct: purchased PRESTO-Tango GPCR kit (Roth lab / Addgene)
Summary of the method: as §1

[28] = biological target: T28, GRM2 (Homo sapiens, UniProt Q14416)
T28 construct: purchased PRESTO-Tango GPCR kit (Roth lab / Addgene)
T28 sequence (Q14416 19-872): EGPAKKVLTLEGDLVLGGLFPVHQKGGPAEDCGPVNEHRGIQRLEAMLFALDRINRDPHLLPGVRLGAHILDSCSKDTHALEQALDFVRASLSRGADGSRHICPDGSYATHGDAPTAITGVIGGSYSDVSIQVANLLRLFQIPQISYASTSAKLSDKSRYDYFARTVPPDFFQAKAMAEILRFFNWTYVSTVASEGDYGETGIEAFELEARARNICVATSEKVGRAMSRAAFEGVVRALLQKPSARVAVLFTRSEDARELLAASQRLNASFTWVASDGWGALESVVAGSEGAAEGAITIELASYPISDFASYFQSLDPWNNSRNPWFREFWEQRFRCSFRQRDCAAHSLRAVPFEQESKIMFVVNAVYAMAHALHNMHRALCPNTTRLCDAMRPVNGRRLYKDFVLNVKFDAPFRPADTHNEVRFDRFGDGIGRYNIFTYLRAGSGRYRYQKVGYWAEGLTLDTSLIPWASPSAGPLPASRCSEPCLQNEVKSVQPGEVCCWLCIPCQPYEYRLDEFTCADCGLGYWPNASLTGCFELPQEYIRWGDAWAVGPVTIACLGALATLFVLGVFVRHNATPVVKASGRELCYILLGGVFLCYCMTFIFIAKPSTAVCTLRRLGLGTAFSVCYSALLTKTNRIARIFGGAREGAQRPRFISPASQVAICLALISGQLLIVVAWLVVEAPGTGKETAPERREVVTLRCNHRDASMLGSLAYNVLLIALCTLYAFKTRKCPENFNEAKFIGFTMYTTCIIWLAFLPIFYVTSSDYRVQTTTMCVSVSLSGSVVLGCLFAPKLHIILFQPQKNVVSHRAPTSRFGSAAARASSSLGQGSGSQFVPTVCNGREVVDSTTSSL
Summary of the method: as §1

[29] = biological target: T29, P2RY4 (Homo sapiens, UniProt P51582)
T29 construct: purchased PRESTO-Tango GPCR kit (Roth lab / Addgene)
Summary of the method: as §1

[30] = biological target: T30, SUCNR1 (Homo sapiens, UniProt Q9BXA5)
T30 construct: purchased PRESTO-Tango GPCR kit (Roth lab / Addgene)
T30 sequence (Q9BXA5 whole entry): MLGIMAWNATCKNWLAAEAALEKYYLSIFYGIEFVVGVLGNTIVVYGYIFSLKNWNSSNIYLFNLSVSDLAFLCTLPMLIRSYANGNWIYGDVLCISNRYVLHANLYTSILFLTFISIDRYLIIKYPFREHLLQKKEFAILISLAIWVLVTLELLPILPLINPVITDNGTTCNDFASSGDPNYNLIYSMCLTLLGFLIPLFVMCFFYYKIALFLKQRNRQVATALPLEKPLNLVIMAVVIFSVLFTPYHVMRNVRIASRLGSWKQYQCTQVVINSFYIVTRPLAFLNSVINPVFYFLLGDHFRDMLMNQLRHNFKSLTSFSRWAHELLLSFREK
Summary of the method: as §1

[31] = biological target: T31, EDNRB (Homo sapiens, UniProt P24530)
T31 construct: purchased PRESTO-Tango GPCR kit (Roth lab / Addgene)
Summary of the method: as §1

[32] = biological target: T32, HTR4 (Homo sapiens, UniProt Q13639)
T32 construct: purchased PRESTO-Tango GPCR kit (Roth lab / Addgene)
T32 sequence (Q13639 whole entry): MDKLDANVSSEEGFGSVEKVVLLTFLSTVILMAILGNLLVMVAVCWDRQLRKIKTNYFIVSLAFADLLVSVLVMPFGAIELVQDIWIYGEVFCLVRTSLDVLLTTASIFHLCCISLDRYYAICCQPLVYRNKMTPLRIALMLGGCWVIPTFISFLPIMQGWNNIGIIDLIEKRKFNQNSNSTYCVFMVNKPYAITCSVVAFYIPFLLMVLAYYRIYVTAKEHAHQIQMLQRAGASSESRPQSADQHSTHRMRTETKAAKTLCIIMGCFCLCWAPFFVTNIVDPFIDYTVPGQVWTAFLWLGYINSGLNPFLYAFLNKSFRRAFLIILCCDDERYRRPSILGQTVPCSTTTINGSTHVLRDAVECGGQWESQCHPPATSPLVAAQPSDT
Summary of the method: as §1

[33] = biological target: T33, NPS (Homo sapiens, UniProt Q6W5P4)
T33 construct: purchased PRESTO-Tango GPCR kit (Roth lab / Addgene)
T33 sequence (Q6W5P4 whole entry): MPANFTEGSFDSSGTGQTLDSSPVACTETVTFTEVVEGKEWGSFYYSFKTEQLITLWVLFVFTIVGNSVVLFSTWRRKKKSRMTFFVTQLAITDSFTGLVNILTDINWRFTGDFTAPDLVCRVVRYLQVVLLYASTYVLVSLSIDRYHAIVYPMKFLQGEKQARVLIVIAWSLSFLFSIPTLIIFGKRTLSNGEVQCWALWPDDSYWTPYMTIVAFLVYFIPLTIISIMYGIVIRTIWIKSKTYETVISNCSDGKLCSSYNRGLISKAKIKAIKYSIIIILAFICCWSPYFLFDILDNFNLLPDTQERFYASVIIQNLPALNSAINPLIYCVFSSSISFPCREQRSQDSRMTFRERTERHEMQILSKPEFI
Summary of the method: as §1

[34] = biological target: T34, GPR132 (Homo sapiens, UniProt Q9UNW8)
T34 construct: purchased PRESTO-Tango GPCR kit (Roth lab / Addgene)
Summary of the method: as §1

[35] = biological target: T35, QRFP (Homo sapiens, UniProt Q96P65)
T35 construct: purchased PRESTO-Tango GPCR kit (Roth lab / Addgene)
Summary of the method: as §1

[36] = biological target: T36, HTR1A (Homo sapiens, UniProt P08908)
T36 construct: purchased PRESTO-Tango GPCR kit (Roth lab / Addgene)
T36 sequence (P08908 whole entry): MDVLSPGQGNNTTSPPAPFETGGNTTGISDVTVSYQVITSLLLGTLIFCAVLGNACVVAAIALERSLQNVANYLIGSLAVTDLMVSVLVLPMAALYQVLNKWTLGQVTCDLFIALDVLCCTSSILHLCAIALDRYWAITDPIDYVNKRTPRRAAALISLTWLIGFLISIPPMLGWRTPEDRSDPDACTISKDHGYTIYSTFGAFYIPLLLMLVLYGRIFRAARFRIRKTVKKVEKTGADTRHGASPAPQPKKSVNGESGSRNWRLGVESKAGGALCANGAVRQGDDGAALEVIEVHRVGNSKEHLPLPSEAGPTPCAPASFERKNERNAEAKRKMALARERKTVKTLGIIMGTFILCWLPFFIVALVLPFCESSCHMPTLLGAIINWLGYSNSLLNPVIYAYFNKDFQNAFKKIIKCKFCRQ
Summary of the method: as §1

| Compound | GPCR activation (heatmap value) [1] | GPCR activation (heatmap value) [2] | GPCR activation (heatmap value) [3] | GPCR activation (heatmap value) [4] | GPCR activation (heatmap value) [5] | GPCR activation (heatmap value) [6] | GPCR activation (heatmap value) [7] | GPCR activation (heatmap value) [8] | GPCR activation (heatmap value) [9] | GPCR activation (heatmap value) [10] | GPCR activation (heatmap value) [11] | GPCR activation (heatmap value) [12] | GPCR activation (heatmap value) [13] | GPCR activation (heatmap value) [14] | GPCR activation (heatmap value) [15] | GPCR activation (heatmap value) [16] | GPCR activation (heatmap value) [17] | GPCR activation (heatmap value) [18] | GPCR activation (heatmap value) [19] | GPCR activation (heatmap value) [20] | also measured |
| --- | --- | --- | --- | --- | --- | --- | --- | --- | --- | --- | --- | --- | --- | --- | --- | --- | --- | --- | --- | --- | --- |
| CC(C)Cc1ncc(CCCCNC(=N)N)[nH]c1=O [3-Homo] | 0.8539 | -0.5192 | 0.1441 | -0.9993 | 0.4883 | 0.6163 | 0.02511 | 0.3516 | 0.04883 | -0.1347 | 0.05755 | -0.7293 | 0.4025 | -0.5864 | 0.06719 | 0.1024 | -1.546 | 0.407 | -1.3275 | 0.3619 | GPCR activation (heatmap value) [21]: -0.2406; GPCR activation (heatmap value) [22]: 0.1231; GPCR activation (heatmap value) [23]: 0.374; GPCR activation (heatmap value) [24]: -0.06354; GPCR activation (heatmap value) [25]: -0.05748; GPCR activation (heatmap value) [26]: 0.207; GPCR activation (heatmap value) [27]: 0.737; GPCR activation (heatmap value) [28]: -1.403; GPCR activation (heatmap value) [29]: 0.7408; GPCR activation (heatmap value) [30]: -0.1091; GPCR activation (heatmap value) [31]: -0.6292; GPCR activation (heatmap value) [32]: -0.1279; GPCR activation (heatmap value) [33]: -0.3425; GPCR activation (heatmap value) [34]: 0.4638; GPCR activation (heatmap value) [35]: 0.525; GPCR activation (heatmap value) [36]: -0.3927 |
| CC(C)Cc1ncc(CCCNC(=N)N)[nH]c1=O [compound 3] | 1.264 | -0.4548 | 0.33 | -0.1783 | 0.1075 | 0.4729 | 0.23 | 0.1076 | -0.3148 | 0.374 | 0.09111 | -0.2878 | -0.3752 | 0.329 | 0.1737 | 0.1911 | -1.184 | 0.5017 | -0.2593 | 0.09545 | GPCR activation (heatmap value) [21]: 0.2678; GPCR activation (heatmap value) [22]: 0.214; GPCR activation (heatmap value) [23]: 0.05297; GPCR activation (heatmap value) [24]: 0.3857; GPCR activation (heatmap value) [25]: -1.212; GPCR activation (heatmap value) [26]: 0.4215; GPCR activation (heatmap value) [27]: -0.585; GPCR activation (heatmap value) [28]: -1.186; GPCR activation (heatmap value) [29]: 0.7544; GPCR activation (heatmap value) [30]: 0.1336; GPCR activation (heatmap value) [31]: 0.7397; GPCR activation (heatmap value) [32]: -1.236; GPCR activation (heatmap value) [33]: -0.7734; GPCR activation (heatmap value) [34]: 0.3578; GPCR activation (heatmap value) [35]: 0.1257; GPCR activation (heatmap value) [36]: -0.02258 |
